Laboratory results taken from ChEMBL document CHEMBL4190383, “Hit discovery of Mycobacterium tuberculosis inosine 5'-monophosphate dehydrogenase, GuaB2, inhibitors” (Bioorg Med Chem Lett, 2018).
Converted amounts (≈) assume the structure as drawn.

Experiments:
[1] = test system: Mycobacterium tuberculosis; assay: Antimicrobial activity against Mycobacterium tuberculosis H37Rv by alamar blue assay; assay type: functional
[2] = Inhibition of Mycobacterium tuberculosis GuaB2
[3] = biological target: Inosine-5'-monophosphate dehydrogenase 2 (Homo sapiens) (UniProt P12268); assay: Inhibition of human IMPDH2 at 10 uM
Inosine-5'-monophosphate dehydrogenase 2 (Homo sapiens), sequence (P12268 2-514 limits assumed): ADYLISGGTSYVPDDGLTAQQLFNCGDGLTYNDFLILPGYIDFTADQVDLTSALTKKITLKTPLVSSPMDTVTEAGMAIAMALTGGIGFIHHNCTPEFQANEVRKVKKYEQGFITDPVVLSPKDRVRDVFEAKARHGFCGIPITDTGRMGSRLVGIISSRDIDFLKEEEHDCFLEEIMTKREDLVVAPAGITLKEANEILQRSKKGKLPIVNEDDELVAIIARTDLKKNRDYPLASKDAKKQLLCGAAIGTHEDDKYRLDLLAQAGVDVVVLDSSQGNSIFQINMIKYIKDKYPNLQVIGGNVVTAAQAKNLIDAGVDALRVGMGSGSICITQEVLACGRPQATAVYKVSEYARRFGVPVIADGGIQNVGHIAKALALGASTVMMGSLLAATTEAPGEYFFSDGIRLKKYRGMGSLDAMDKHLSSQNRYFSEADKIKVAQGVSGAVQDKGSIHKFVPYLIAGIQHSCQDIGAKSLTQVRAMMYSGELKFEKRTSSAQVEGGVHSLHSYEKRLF

[4] = test system: Mycobacterium tuberculosis; assay: Inhibition of Mycobacterium tuberculosis GuaB2 at 50 uM
[5] = test system: Mycobacterium tuberculosis; assay: Antimicrobial activity against Mycobacterium tuberculosis SRMV2.6 H37Rv by alamar blue assay; assay type: functional
[6] = Inhibition of Mycobacterium tuberculosis GuaB2 expressed in Escherichia coli BL21(DE3) using [2-2H]-IMP or [2-1H]-IMP and NAD+ incubated for 2 hrs by 1H NMR method
Acinetobacter baumannii = assay: Growth inhibition of Acinetobacter baumannii at 32 ug/ml; assay type: functional; conditions: read-out: GI
Klebsiella pneumoniae = assay: Growth inhibition of Klebsiella pneumoniae at 32 ug/ml; assay type: functional; conditions: read-out: GI
Escherichia coli = assay: Growth inhibition of Escherichia coli at 32 ug/ml; assay type: functional; conditions: read-out: GI
Cryptococcus neoformans = assay: Growth inhibition of Cryptococcus neoformans var. grubii at 32 ug/ml; assay type: functional; conditions: read-out: GI
Candida albicans = assay: Growth inhibition of Candida albicans at 32 ug/ml; assay type: functional; conditions: read-out: GI
Staphylococcus aureus = assay: Growth inhibition of methicillin-resistant Staphylococcus aureus at 32 ug/ml; assay type: functional; conditions: read-out: GI
Pseudomonas aeruginosa = assay: Growth inhibition of Pseudomonas aeruginosa at 32 ug/ml; assay type: functional; conditions: read-out: GI

| Compound | MIC90 [1] [µM] | also measured |
| --- | --- | --- |
| CC(=O)C1CCN(CC(=O)Nn2c(C)nc3sccc3c2=O)CC1 | > 100 |  |
| Cc1nc2sccc2c(=O)n1NC(=O)Nc1cccc([N+](=O)[O-])c1 | > 100 |  |
| N#Cc1ccc(Cn2nncc2COc2cccc3ccccc23)cc1 | 100 (≈ 34 µg/mL) | IC50 [2]: 175 µM; inhibition [3]: 14.8%; inhibition [4]: 43.5%; MIC90 [5]: > 100 µM |
| Cc1nnc(-c2ccc(OCc3cnnn3Cc3ccc(C#N)cc3)cc2)o1 | > 100 |  |
| CCOC(=O)C1CCN(CC(=O)Nc2ccc3c(c2)COC3=O)CC1 | > 100 |  |
| COc1cccc(NC(=O)Nn2c(C)nc3sccc3c2=O)c1 | > 100 |  |
| O=C(O)CCC(=O)NCC1(N2CCOCC2)CCCCCC1 | > 100 |  |
| O=C(COc1ccc(C(=O)/C=C/c2cccs2)cc1)Nc1ccc2c(c1)COC2=O | > 100 |  |
| CC(=O)c1ccc(OCC(=O)Nn2c(C)nc3sccc3c2=O)cc1 | > 100 |  |
| O=C(COc1ccc(C(=O)/C=C/c2ccc([N+](=O)[O-])cc2)cc1)Nc1ccc2c(c1)COC2=O | > 100 |  |
| Cc1nc2sccc2c(=O)n1NC(=O)Nc1ccc2c(c1)OCO2 | > 100 |  |
| COc1c(C)c2c(c(O)c1C/C=C(\C)CCC(=O)N[C@@H](C)c1ccccc1)C(=O)OC2 | > 100 |  |
| O=C(O)CCCC(=O)Nc1cc(-c2ccco2)[nH]n1 | > 100 |  |
| COc1ccc2[nH]c(S(=O)(=O)Cc3ncc(C)c(OC)c3C)nc2c1 [OMEPRAZOLE SULFONE] | > 100 |  |
| CC1CC(NS(=O)(=O)c2ccc(NC(=O)CCC(=O)O)cc2)=NO1 (stereo unspecified) | > 100 |  |
| O=C(O)/C=C\C(=O)NCc1ccccc1 | > 100 |  |
| O=C(Cn1c(-c2cscn2)nc2ccccc21)c1ccc(Br)cc1 |  | Ki [6]: 0.55 µM |
| COc1cccc(Cn2nncc2COc2ccc(-c3nnc(C)o3)cc2)c1 | 50 (≈ 18.9 µg/mL) | inhibition of growth at 32 µg/mL (Acinetobacter baumannii): -15.3%; inhibition [3]: 0.1%; inhibition of growth at 32 µg/mL (Klebsiella pneumoniae): -4.35%; inhibition [4]: 35%; MIC90 [5]: 100 µM (≈ 37.7 µg/mL); inhibition of growth at 32 µg/mL (Escherichia coli): -7.43%; inhibition of growth at 32 µg/mL (Cryptococcus neoformans): -59.4%; inhibition of growth at 32 µg/mL (Candida albicans): 3.07%; inhibition of growth at 32 µg/mL (Staphylococcus aureus): 5.5%; inhibition of growth at 32 µg/mL (Pseudomonas aeruginosa): 1.44% |
| Cc1nnc(-c2ccc(OCc3cnnn3Cc3ccc(Cl)cc3Cl)cc2)o1 | > 100 |  |

| Compound | MIC90 [1] [µM] | also measured |
| --- | --- | --- |
| Cc1nnc(-c2ccc(OCc3cnnn3Cc3ccc(Cl)cc3)cc2)o1 | > 100 |  |
| O=C(O)CCCC(=O)N1CCn2c(nnc2C(F)(F)F)C1 | > 100 |  |
| Cc1ccc2nc(NC(=O)CCC(=O)O)sc2c1 | > 100 |  |
| Cc1cc(OCC(=O)Nc2ccc3c(c2)COC3=O)ccc1[N+](=O)[O-] | > 100 |  |
| Cc1nc2sccc2c(=O)n1NC(=S)Nc1ccccc1F | > 100 |  |
| O=C(COc1cc(Cl)ccc1Oc1ccc(Cl)cc1Cl)Nc1ccc2c(c1)COC2=O | > 100 |  |
| COc1cc(-c2oc3ccccc3c(=O)c2OCC(=O)Nc2ccc3c(c2)COC3=O)cc(OC)c1OC | > 100 |  |
| N#Cc1ccc(Cn2nncc2COc2ccc3ccccc3c2)cc1 | > 100 |  |
| COc1ccc(NC(=O)Nc2ccc(-c3cnco3)cc2)cc1 | > 100 |  |
| Clc1ccc(Cn2nncc2COc2ccc3ccccc3c2)cc1 | > 100 |  |
| Fc1ccc(Cn2nncc2COc2ccc3ccccc3c2)cc1 | > 100 |  |
| Clc1ccc(Cn2nncc2COc2ccc3ccccc3c2)c(Cl)c1 | > 100 |  |
| COc1cc(NC(=O)Nn2c(C)nc3sccc3c2=O)cc(OC)c1 | > 100 |  |
| COc1cc(/C=C/C(=O)c2cccc(OCC(=O)Nc3ccc4c(c3)COC4=O)c2)cc(OC)c1OC | > 100 |  |
| CC(C(=O)Nc1ccc2c(c1)COC2=O)c1ccc(-c2ccccc2)c(F)c1 (stereo unspecified) | > 100 |  |
| COc1ccc(NC(=O)Nn2c(C)nc3sccc3c2=O)cc1 | > 100 |  |
| O=C1OCc2cc(NS(=O)(=O)c3ccc([N+](=O)[O-])cc3)ccc21 | > 100 |  |
| O=C(O)CNC(=O)[C@@H]1C[C@H]1c1ccccc1 | > 100 |  |
